Measurements reported in US11648315B2, “Silvestrol antibody-drug conjugates and methods of use” (Genentech, Inc., priority 2016, dated 2023).

How the values were obtained:
Format in all cases: cell-based
BJAB = assay: In vitro efficacy of free drug silvestrol compounds, BJAB; details: Homo sapiens; BJAB cell line
Description: (§1) The CellTiter-Glo® Luminescent Cell Viability Assay is a commercially available (Promega Corp., Madison, Wis.), homogeneous assay method based on the recombinant expression of Coleoptera luciferase (U.S. Pat. Nos. 5,583,024; 5,674,713; 5,700,670). This cell proliferation assay determines the number of viable cells in culture based on quantitation of the ATP present, an indicator of metabolically active cells (Crouch et al (1993) J. Immunol. Meth. 160:81-88; U.S. Pat. No. 6,602,677). The CellTiter-Glo® Assay was conducted in 96 well format, making it amenable to automated high-throughput screening (HTS) (Cree et al (1995) AntiCancer Drugs 6:398-404). The homogeneous assay procedure involves adding the single reagent (CellTiter-Glo® Reagent) directly to cells cultured in serum-supplemented medium. […]
(§2) Inhibition of cell proliferation in vitro may be assayed using the CellTiter-Glo™ Luminescent Cell Viability Assay, an embodiment of which is detailed as Example 6. Such assay determines the number of viable cells in culture based on quantitation of ATP present, which is an indication of metabolically active cells (Crouch et al. (1993) J. Immunol. Meth. 160:81-88; U.S. Pat. No. 6,602,677). […] Data can be recorded by luminometer or CCD camera imaging device. The luminescence output is expressed as relative light units (RLU).

SK-BR-3 cells = assay: In vitro cell viability (CellTiter-Glo), SK-BR-3 cells; details: Homo sapiens, read-out: IC50 free drug
Procedure: (§3) Generally, the cytotoxic or cytostatic activity of an antibody-drug conjugate (ADC) is measured by: exposing mammalian cells having receptor proteins, e.g. HER2, to the antibody of the ADC in a cell culture medium; culturing the cells for a period from about 6 hours to about 5 days; and measuring cell viability. Cell-based in vitro assays were used to measure viability (proliferation), cytotoxicity, and induction of apoptosis (caspase activation) of the ADC of the invention.
(§4) The CellTiter-Glo® Luminescent Cell Viability Assay is a commercially available (Promega Corp., Madison, Wis.), homogeneous assay method based on the recombinant expression of Coleoptera luciferase (U.S. Pat. Nos. 5,583,024; 5,674,713; 5,700,670). This cell proliferation assay determines the number of viable cells in culture based on quantitation of the ATP present, an indicator of metabolically active cells (Crouch et al (1993) J. Immunol. Meth. 160:81-88; U.S. Pat. No. 6,602,677). […]
(§5) Inhibition of cell proliferation in vitro may be assayed using the CellTiter-Glo™ Luminescent Cell Viability Assay, an embodiment of which is detailed as Example 6. Such assay determines the number of viable cells in culture based on quantitation of ATP present, which is an indication of metabolically active cells (Crouch et al. (1993) J. Immunol. Meth. 160:81-88; U.S. Pat. No. 6,602,677). […]

cell lines of Table 7 = assay: In vitro efficacy of free drug silvestrol compounds, summary over cell lines of Table 7; details: summary of Table 7
Description: The CellTiter-Glo® Luminescent Cell Viability Assay is a commercially available (Promega Corp., Madison, Wis.), homogeneous assay method based on the recombinant expression of Coleoptera luciferase (U.S. Pat. Nos. 5,583,024; 5,674,713; 5,700,670). This cell proliferation assay determines the number of viable cells in culture based on quantitation of the ATP present, an indicator of metabolically active cells (Crouch et al (1993) J. Immunol. Meth. 160:81-88; U.S. Pat. No. 6,602,677). The CellTiter-Glo® Assay was conducted in 96 well format, making it amenable to automated high-throughput screening (HTS) (Cree et al (1995) AntiCancer Drugs 6:398-404). The homogeneous assay procedure involves adding the single reagent (CellTiter-Glo® Reagent) directly to cells cultured in serum-supplemented medium. Cell washing, removal of medium and multiple pipetting steps are not required. The system detects as few as 15 cells/well in a 384-well format in 10 minutes after adding reagent and mixing. The cells may be treated continuously with ADC, or they may be treated and separated from ADC.
Inhibition of cell proliferation in vitro may be assayed using the CellTiter-Glo™ Luminescent Cell Viability Assay, an embodiment of which is detailed as Example 6. Such assay determines the number of viable cells in culture based on quantitation of ATP present, which is an indication of metabolically active cells (Crouch et al. (1993) J. Immunol. Meth. 160:81-88; U.S. Pat. No. 6,602,677). The assay may be conducted in 96- or 384-well format, making it amenable to automated high-throughput screening (HTS). See Cree et al. (1995) AntiCancer Drugs 6:398-404. The assay procedure involves adding a single reagent (CellTiter-Glo® Reagent) directly to cultured cells. […] The luminescent signal is proportional to the amount of ATP present, which is directly proportional to the number of viable cells present in culture. Data can be recorded by luminometer or CCD camera imaging device. The luminescence output is expressed as relative light units (RLU). […]

SW 900 = assay: In vitro efficacy of free drug silvestrol compounds, SW 900; details: Homo sapiens, SW900; SW 900 cell line
Description: as §1, §2

KPL-4 cells = assay: In vitro cell viability (CellTiter-Glo), KPL-4 cells; details: Homo sapiens, KPL4; KPL-4 cell line; read-out: IC50 (nM) free drug
Procedure: as §3, §4, §5

NCI-H1781 = assay: In vitro efficacy of free drug silvestrol compounds, NCI-H1781; details: NCI-H1781 cell line
Description: as §1, §2

MES-SA/Dx5 = assay: In vitro efficacy of free drug silvestrol compounds, MES-SA/Dx5; details: Homo sapiens; MES-SA/Dx5 cell line
Description: as §1, §2

HCC1569 X2 = assay: In vitro efficacy of free drug silvestrol compounds, HCC1569 X2; details: Homo sapiens; HCC1569 X2 cell line
Description: as §1
as §2, with “(RLU). […]” for “(RLU).”

T-47D = assay: In vitro efficacy of free drug silvestrol compounds, T-47D; details: Homo sapiens, T47D; T-47D cell line
Description: as §1, §2

HCC1937 = assay: In vitro efficacy of free drug silvestrol compounds, HCC1937; details: Homo sapiens; HCC1937 cell line
Description: as §1, §2

MES-SA = assay: In vitro efficacy of free drug silvestrol compounds, MES-SA; details: Homo sapiens; MES-SA cell line
Description: as §1, §2

## COC(=O)[C@H]1[C@@H](O)[C@@]2(O)c3c(OC)cc(O[C@@H]4O[C@@H](CCN)CO[C@H]4OC)cc3O[C@@]2(c2ccc(OC)cc2)[C@@H]1c1ccccc1 [amino silvestrol analog, (1R,2R,3S,3aR,8bS)-methyl 6-(((2S,3R,6S)-6-(2-aminoethyl)-3-methoxy-1,4-dioxan-2-yl)oxy)-1,8b-dihydroxy-8-methoxy-3a-(4-methoxyphenyl)-3-phenyl-2,3,3a,8b-tetrahydro-1H-cyclopenta[b]benzofuran-2-carboxylate]
BJAB
  IC50: 0.81 nM
SK-BR-3 cells
  IC50: 1.6 nM
Cell lines of Table 7
  IC50s of free drug, in words: pM or low nM
  activity of free drug in vitro: active
SW 900
  IC50: 2.9 nM
KPL-4 cells
  IC50: 1.2 nM
NCI-H1781
  IC50: 1 nM
MES-SA/Dx5
  IC50: > 100 nM
HCC1569 X2
  IC50: 1.3 nM
T-47D
  IC50: 1 nM
HCC1937
  IC50: 0.66 nM
MES-SA
  IC50: 1.1 nM

## COc1ccc([C@@]23Oc4cc(O[C@@H]5O[C@@H]([C@H](O)CO)CO[C@H]5OC)cc(OC)c4[C@]2(O)[C@H](O)[C@H](C(=O)NCCN)[C@H]3c2ccccc2)cc1 [silvestrol amine, (1R,2R,3S,3aR,8bS)-N-(2-aminoethyl)-6-(((2S,3R,6R)-6-((R)-1,2-dihydroxyethyl)-3-methoxy-1,4-dioxan-2-yl)oxy)-1,8b-dihydroxy-8-methoxy-3a-(4-methoxyphenyl)-3-phenyl-2,3,3a,8b-tetrahydro-1H-cyclopenta[b]benzofuran-2-carboxamide]
BJAB
  IC50: > 200 nM
Cell lines of Table 7
  activity of free drug in vitro: inactive
SW 900
  IC50: > 200 nM
KPL-4 cells
  IC50: > 200 nM
NCI-H1781
  IC50: > 200 nM
MES-SA/Dx5
  IC50: > 200 nM
HCC1569 X2
  IC50: > 200 nM
T-47D
  IC50: > 200 nM
HCC1937
  IC50: > 200 nM
MES-SA
  IC50: > 100 nM
